We go through 24 compounds from US11566022B2, “3-(5-methoxy-1-oxoisoindolin-2-yl)piperidine-2,6-dione derivatives and uses thereof” (NOVARTIS AG, priority 2019, dated 2023).

One may read the AC50 as the concentration giving half of the maximal activity seen.

One test addresses HiBit-WIZ fusion protein (Homo sapiens, UniProt O95785+Q96SW2). As to the kind of experiment: Quantification of WIZ protein levels in HiBit tag fusion protein assay (WIZ HiBit assay in 293T cells). Also on record: Dmax: dose or concentration left out as unconfirmed. The note with it: for remaining activity at up to 25 µM: read-out: WIZ Amax; for DC50: read-out: WIZ AC50. The format is cell-based. In general terms: With HiBiT, luminescence reflects the tagged protein that the partner subunit can reach.

For test [1] the following is noted: SCD, current standard of care; cited from earlier work.
Setting [2] is: HEK-293T, 100 minus Amax, 293T cells, read-out: % degradation of WIZ (100-Amax).
The mark [3] stands for this setting: HEK-293T, DMSO-normalized, curve-fitted percentage of WIZ-HiBit remaining at 25 uM, 293T cells.
Setting [4] is: WIZ HiBit assay in 293T cells, 10-point, 5-fold dose response, highest concentration 25 μM, about 18 hours.

Read-outs that look alike come from different tables or passages of the source.

HiBit-WIZ fusion protein, sequence (O95785 whole entry, the tested form may be a part): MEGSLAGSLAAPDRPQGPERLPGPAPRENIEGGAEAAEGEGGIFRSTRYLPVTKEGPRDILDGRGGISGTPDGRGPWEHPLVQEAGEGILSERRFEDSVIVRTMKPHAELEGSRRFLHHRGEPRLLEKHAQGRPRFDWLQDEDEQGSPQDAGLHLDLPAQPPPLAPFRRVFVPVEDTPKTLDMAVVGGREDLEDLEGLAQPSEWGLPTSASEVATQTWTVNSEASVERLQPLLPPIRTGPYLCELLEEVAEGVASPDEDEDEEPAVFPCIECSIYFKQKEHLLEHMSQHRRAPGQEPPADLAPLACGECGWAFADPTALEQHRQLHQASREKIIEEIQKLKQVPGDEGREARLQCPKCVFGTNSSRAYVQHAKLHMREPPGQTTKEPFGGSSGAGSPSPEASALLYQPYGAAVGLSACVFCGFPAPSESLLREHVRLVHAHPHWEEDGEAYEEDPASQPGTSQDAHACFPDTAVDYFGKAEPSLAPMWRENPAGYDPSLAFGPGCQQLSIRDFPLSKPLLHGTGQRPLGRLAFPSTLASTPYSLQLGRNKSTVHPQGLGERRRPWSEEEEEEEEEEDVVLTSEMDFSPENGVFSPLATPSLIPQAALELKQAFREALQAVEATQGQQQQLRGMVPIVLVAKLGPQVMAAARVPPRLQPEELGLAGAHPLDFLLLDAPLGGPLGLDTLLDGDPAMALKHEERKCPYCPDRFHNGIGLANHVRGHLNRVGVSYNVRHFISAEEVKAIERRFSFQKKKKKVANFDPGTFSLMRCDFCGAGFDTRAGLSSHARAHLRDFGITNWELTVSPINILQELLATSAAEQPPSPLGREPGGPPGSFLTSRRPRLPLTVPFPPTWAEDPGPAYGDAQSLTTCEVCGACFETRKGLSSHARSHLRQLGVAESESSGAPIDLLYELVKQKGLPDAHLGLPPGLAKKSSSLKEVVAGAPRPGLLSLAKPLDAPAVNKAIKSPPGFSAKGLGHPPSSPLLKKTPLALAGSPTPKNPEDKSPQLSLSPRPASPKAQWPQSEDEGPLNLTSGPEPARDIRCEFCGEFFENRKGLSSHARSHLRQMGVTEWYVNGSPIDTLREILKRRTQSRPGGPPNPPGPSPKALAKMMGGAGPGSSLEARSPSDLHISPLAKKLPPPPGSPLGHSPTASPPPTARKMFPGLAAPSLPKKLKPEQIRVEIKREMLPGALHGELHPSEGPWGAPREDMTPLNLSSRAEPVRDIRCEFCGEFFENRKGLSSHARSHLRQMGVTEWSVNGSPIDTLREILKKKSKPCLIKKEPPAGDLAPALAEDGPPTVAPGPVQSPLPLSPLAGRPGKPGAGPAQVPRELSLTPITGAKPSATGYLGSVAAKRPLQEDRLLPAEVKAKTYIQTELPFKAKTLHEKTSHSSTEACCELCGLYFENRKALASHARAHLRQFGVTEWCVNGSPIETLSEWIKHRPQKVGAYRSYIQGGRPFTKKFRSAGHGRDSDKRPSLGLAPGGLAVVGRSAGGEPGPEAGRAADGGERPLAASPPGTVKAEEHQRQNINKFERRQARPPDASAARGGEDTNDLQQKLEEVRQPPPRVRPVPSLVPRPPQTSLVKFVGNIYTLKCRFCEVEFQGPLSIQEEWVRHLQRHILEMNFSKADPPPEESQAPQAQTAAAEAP
HiBit-WIZ fusion protein, sequence (Q96SW2 whole entry, the tested form may be a part): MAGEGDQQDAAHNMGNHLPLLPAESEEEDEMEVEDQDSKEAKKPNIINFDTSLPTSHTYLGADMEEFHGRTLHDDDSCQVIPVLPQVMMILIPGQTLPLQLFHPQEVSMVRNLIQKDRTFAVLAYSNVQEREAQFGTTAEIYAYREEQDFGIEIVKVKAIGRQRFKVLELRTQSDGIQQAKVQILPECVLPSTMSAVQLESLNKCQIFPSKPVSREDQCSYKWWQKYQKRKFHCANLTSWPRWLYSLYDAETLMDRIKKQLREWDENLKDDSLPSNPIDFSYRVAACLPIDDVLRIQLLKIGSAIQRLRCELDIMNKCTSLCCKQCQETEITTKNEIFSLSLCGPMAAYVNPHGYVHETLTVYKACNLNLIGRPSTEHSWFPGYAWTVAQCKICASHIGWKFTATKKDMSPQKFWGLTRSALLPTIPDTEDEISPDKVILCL
HiBit-WIZ fusion protein, sequence (Q16531 whole entry partner, the tested form may be a part): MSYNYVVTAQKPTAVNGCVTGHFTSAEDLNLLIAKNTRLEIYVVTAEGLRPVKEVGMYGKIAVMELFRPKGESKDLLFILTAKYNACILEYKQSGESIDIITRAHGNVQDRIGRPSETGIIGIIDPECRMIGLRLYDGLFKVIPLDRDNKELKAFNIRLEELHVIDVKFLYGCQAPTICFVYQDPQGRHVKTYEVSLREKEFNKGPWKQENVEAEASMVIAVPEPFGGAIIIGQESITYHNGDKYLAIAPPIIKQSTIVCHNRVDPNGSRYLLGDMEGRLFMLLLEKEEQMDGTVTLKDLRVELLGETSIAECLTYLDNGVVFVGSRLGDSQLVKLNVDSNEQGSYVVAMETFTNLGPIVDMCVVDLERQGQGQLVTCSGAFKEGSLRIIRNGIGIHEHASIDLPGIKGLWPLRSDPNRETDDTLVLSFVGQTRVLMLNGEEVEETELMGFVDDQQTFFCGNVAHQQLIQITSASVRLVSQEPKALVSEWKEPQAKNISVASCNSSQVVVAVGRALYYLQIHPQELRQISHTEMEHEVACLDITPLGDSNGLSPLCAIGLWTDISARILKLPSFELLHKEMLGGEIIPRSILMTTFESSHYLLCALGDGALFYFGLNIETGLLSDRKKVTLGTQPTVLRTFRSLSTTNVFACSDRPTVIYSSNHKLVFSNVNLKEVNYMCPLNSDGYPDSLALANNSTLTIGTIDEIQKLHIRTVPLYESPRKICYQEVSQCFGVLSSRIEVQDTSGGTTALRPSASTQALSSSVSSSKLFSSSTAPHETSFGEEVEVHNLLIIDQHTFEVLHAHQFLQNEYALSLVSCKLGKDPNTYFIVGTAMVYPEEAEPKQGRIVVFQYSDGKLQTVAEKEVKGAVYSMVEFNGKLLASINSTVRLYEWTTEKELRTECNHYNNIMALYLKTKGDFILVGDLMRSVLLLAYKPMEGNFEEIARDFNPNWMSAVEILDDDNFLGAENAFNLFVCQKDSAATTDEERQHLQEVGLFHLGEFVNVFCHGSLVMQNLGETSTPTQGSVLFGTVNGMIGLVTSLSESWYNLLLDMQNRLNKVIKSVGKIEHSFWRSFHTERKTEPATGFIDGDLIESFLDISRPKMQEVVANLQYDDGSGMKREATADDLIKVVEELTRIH

For `O=C1CCC(N2Cc3cc(OC[C@H]4CCCCN4Cc4cccc5c4NC(=O)CO5)ccc3C2=O)C(=O)N1` (stereo partly drawn) [Compound I-180, 3-(1-oxo-5-(((R)-1-((3-oxo-3,4-dihydro-2H-benzo[b][1,4]oxazin-5-yl)methyl)piperidin-2-yl)methoxy)isoindolin-2-yl)piperidine-2,6-dione], the Dmax on HiBit-WIZ fusion protein (setting [2]) came to 15.3%. Also, the remaining activity at up to 25 µM on HiBit-WIZ fusion protein (setting [3]) was 84.7%. In addition, the DC50 on HiBit-WIZ fusion protein (setting [4]) amounted to 0.02 µM.
For `O=C1CCC(N2Cc3cc(OC[C@H]4CCCCN4CCOCc4ccccc4)ccc3C2=O)C(=O)N1` (stereo partly drawn) [Compound I-183, 3-(5-(((R)-1-(2-(benzyloxy)ethyl)piperidin-2-yl)methoxy)-1-oxoisoindolin-2-yl)piperidine-2,6-dione] the same measures were 86.1%, 13.9% and 0.004 µM.
For `O=C1CCC(N2Cc3cc(OC[C@H]4CCCCN4Cc4ccc5c(c4)OC(F)(F)O5)ccc3C2=O)C(=O)N1` (stereo partly drawn) [Compound I-184] the same measures were 92.7%, 7.28% and 0.00047 µM.
For `O=C1CCC(N2Cc3cc(OC[C@H]4CCCCN4Cc4ccc(N5CCOCC5)nc4)ccc3C2=O)C(=O)N1` (stereo partly drawn) [Compound I-186, 3-(5-(((R)-1-((6-morpholinopyridin-3-yl)methyl)piperidin-2-yl)methoxy)-1-oxoisoindolin-2-yl)piperidine-2,6-dione] the same measures were 80.8%, 19.1% and 0.0043 µM.
On to `O=C1CCC(N2Cc3cc(OC[C@H]4CCCCN4Cc4ccc(C5=CCOCC5)cc4)ccc3C2=O)C(=O)N1` (stereo partly drawn) [Compound I-188, 3-(5-(((R)-1-(4-(3,6-dihydro-2H-pyran-4-yl)benzyl)piperidin-2-yl)methoxy)-1-oxoisoindolin-2-yl)piperidine-2,6-dione], for which the Dmax at HiBit-WIZ fusion protein (setting [2]) amounted to 86.6%. In addition, the remaining activity at up to 25 µM on HiBit-WIZ fusion protein (setting [3]) turned out to be 13.4%. Also, the DC50 at HiBit-WIZ fusion protein (setting [4]) was 0.00035 µM.
For `CC(C)(C)OC(=O)N1CCN(c2ccc(CN3CCCC[C@@H]3COc3ccc4c(c3)CN(C3CCC(=O)NC3=O)C4=O)cn2)CC1` (stereo partly drawn) [Compound I-189, Tert-butyl 4-(5-(((2R)-2-(((2-(2,6-dioxopiperidin-3-yl)-1-oxoisoindolin-5-yl)oxy)methyl)piperidin-1-yl)methyl)pyridin-2-yl)piperazine-1-carboxylate] the same measures were 73.2%, 26.8% and 0.0043 µM.
For `CCN1CCN(c2ccc(CN3CCCC[C@@H]3COc3ccc4c(c3)CN(C3CCC(=O)NC3=O)C4=O)cn2)CC1` (stereo partly drawn) [Compound I-191, 3-(5-(((R)-1-((6-(4-ethylpiperazin-1-yl)pyridin-3-yl)methyl)piperidin-2-yl)methoxy)-1-oxoisoindolin-2-yl)piperidine-2,6-dione] the same measures were 67.2%, 32.9% and 0.15 µM.
As to `COc1cc(CN2CCCC[C@@H]2COc2ccc3c(c2)CN(C2CCC(=O)NC2=O)C3=O)ccc1C#N` (stereo partly drawn) [Compound I-192], the Dmax at HiBit-WIZ fusion protein (setting [2]) is 62.2%. Moreover, on HiBit-WIZ fusion protein (setting [3]), the remaining activity at up to 25 µM was found to be 37.8%. Also, at HiBit-WIZ fusion protein (setting [4]), the DC50 was determined as 0.025 µM.
Take `O=C1CCC(N2Cc3cc(OC[C@H]4CCCCN4Cc4ccc5[nH]cnc5c4)ccc3C2=O)C(=O)N1` (stereo partly drawn) [Compound I-193]: the Dmax on HiBit-WIZ fusion protein (setting [2]) amounted to 55.7%. Further, on HiBit-WIZ fusion protein (setting [3]), the remaining activity at up to 25 µM was found to be 44.3%. Besides, the DC50 on HiBit-WIZ fusion protein (setting [4]) is 0.49 µM.
As for `COc1ccc(CN2CCCC[C@@H]2COc2ccc3c(c2)CN(C2CCC(=O)NC2=O)C3=O)cc1C#N` (stereo partly drawn) [Compound I-196, 5-(((2R)-2-(((2-(2,6-dioxopiperidin-3-yl)-1-oxoisoindolin-5-yl)oxy)methyl)piperidin-1-yl)methyl)-2-methoxybenzonitrile], the Dmax at HiBit-WIZ fusion protein (setting [2]) was 78.8%. Besides, the remaining activity at up to 25 µM at HiBit-WIZ fusion protein (setting [3]) amounted to 21.2%. Besides, the DC50 at HiBit-WIZ fusion protein (setting [4]) worked out at 0.0042 µM.
For `O=C1CCC(N2Cc3cc(OC[C@H]4CCCCN4Cc4ccc(C5CCN(CC6CCOCC6)CC5)cc4)ccc3C2=O)C(=O)N1` (stereo partly drawn) [Compound I-197, 3-(1-oxo-5-(((R)-1-(4-(1-((tetrahydro-2H-pyran-4-yl)methyl)piperidin-4-yl)benzyl)piperidin-2-yl)methoxy)isoindolin-2-yl)piperidine-2,6-dione] the same measures were 51.8%, 48.2% and 0.056 µM.
For `O=C1CCC(N2Cc3cc(OC[C@H]4CCCCN4Cc4ccc(C5CCN(CCF)CC5)cc4)ccc3C2=O)C(=O)N1` (stereo partly drawn) [Compound I-198, 3-(5-(((R)-1-(4-(1-(2-fluoroethyl)piperidin-4-yl)benzyl)piperidin-2-yl)methoxy)-1-oxoisoindolin-2-yl)piperidine-2,6-dione] the same measures were 68%, 32% and 0.013 µM.
For `O=C1CCC(N2Cc3cc(OC[C@H]4CCCCN4Cc4ccc5ocnc5c4)ccc3C2=O)C(=O)N1` (stereo partly drawn) [Compound I-201, 3-(5-(((R)-1-(benzo[d]oxazol-5-ylmethyl)piperidin-2-yl)methoxy)-1-oxoisoindolin-2-yl)piperidine-2,6-dione] the same measures were 80.5%, 19.5% and 0.019 µM.
Take `O=C1CCC(N2Cc3cc(OC[C@H]4CCCCN4CC4COC4)ccc3C2=O)C(=O)N1` (stereo partly drawn) [Compound I-202]: at HiBit-WIZ fusion protein (setting [2]), the Dmax is 58.7%. In addition, the remaining activity at up to 25 µM at HiBit-WIZ fusion protein (setting [3]) was 41.3%. Further, the DC50 on HiBit-WIZ fusion protein (setting [4]) stood at 0.083 µM.
On the same counts, the results for `O=C1CCC(N2Cc3cc(OC[C@H]4CCCCN4Cc4ccc(C5CCN(CC6COC6)CC5)cc4)ccc3C2=O)C(=O)N1` (stereo partly drawn) [Compound I-203, 3-(5-(((R)-1-(4-(1-(oxetan-3-ylmethyl)piperidin-4-yl)benzyl)piperidin-2-yl)methoxy)-1-oxoisoindolin-2-yl)piperidine-2,6-dione] are 67.5%, 32.5% and 0.00092 µM.
On the same counts, the results for `O=C1CCC(N2Cc3cc(OC[C@H]4CCCCN4CC4CC4)ccc3C2=O)C(=O)N1` (stereo partly drawn) [Compound I-214, 3-(5-(((R)-1-(cyclopropylmethyl)piperidin-2-yl)methoxy)-1-oxoisoindolin-2-yl)piperidine-2,6-dione] are 82.8%, 17.1% and 0.032 µM.
With `COC1CCC(CN2CCCCC2C(C)Oc2ccc3c(c2)CN(C2CCC(=O)NC2=O)C3=O)CC1` (stereo not drawn) [Compound I-217, 3-(5-(1-(1-((4-methoxycyclohexyl)methyl)piperidin-2-yl)ethoxy)-1-oxoisoindolin-2-yl)piperidine-2,6-dione], the Dmax at HiBit-WIZ fusion protein (setting [2]) is 0.4%. Besides, the remaining activity at up to 25 µM on HiBit-WIZ fusion protein (setting [3]) stood at 99.6%.
Take `CCN1[C@@H]2CC[C@@H](C2)[C@H]1COc1ccc2c(c1)CN(C1CCC(=O)NC1=O)C2=O` (stereo partly drawn) [Compound I-223, 3-(5-(((1R,3S,4S)-2-ethyl-2-azabicyclo[2.2.1]heptan-3-yl)methoxy)-1-oxoisoindolin-2-yl)piperidine-2,6-dione]: the Dmax on HiBit-WIZ fusion protein (setting [2]) was determined as 82.8%. For the same compound, on HiBit-WIZ fusion protein (setting [3]), the remaining activity at up to 25 µM is 17.1%. On HiBit-WIZ fusion protein (setting [4]), the DC50 is 0.072 µM.
Take `CC(C)N1CCN(c2ccc(CN3CCCC[C@@H]3COc3ccc4c(c3)CN(C3CCC(=O)NC3=O)C4=O)cc2)CC1` (stereo partly drawn) [Compound I-227, 3-(5-(((R)-1-(4-(4-isopropylpiperazin-1-yl)benzyl)piperidin-2-yl)methoxy)-1-oxoisoindolin-2-yl)piperidine-2,6-dione]: the Dmax at HiBit-WIZ fusion protein (HEK-293T, read-out: % degradation of WIZ (100-Amax), 100 minus Amax, 293T cells) was 64.2%. Also, on HiBit-WIZ fusion protein (HEK-293T, read-out: WIZ Amax, DMSO-normalized, curve-fitted percentage of WIZ-HiBit remaining at 25 uM, 293T cells), the remaining activity worked out at 35.8%. Moreover, the DC50 at HiBit-WIZ fusion protein (setting [4]) was 0.058 µM.
As to `CC(C)(C)N1CCN(c2ccc(CN3CCCC[C@@H]3COc3ccc4c(c3)CN(C3CCC(=O)NC3=O)C4=O)cc2)CC1` (stereo partly drawn) [Compound I-229, 3-(5-(((R)-1-(4-(4-(tert-butyl)piperazin-1-yl)benzyl)piperidin-2-yl)methoxy)-1-oxoisoindolin-2-yl)piperidine-2,6-dione], the Dmax on HiBit-WIZ fusion protein (setting [2]) amounted to 73.5%. In addition, the remaining activity at up to 25 µM on HiBit-WIZ fusion protein (setting [3]) was found to be 26.6%. Also, on HiBit-WIZ fusion protein (setting [4]), the DC50 came to 0.002 µM.
Turning to `O=C1CCC(N2Cc3cc(OC[C@H]4CCCCN4Cc4ccc(N5CCN(C6CC6)CC5)cc4)ccc3C2=O)C(=O)N1` (stereo partly drawn) [Compound I-233, 3-(5-(((R)-1-(4-(4-cyclopropylpiperazin-1-yl)benzyl)piperidin-2-yl)methoxy)-1-oxoisoindolin-2-yl)piperidine-2,6-dione], at HiBit-WIZ fusion protein (setting [2]), the Dmax was 81.1%. Besides, the remaining activity at up to 25 µM at HiBit-WIZ fusion protein (setting [3]) was 18.9%. Also, the DC50 at HiBit-WIZ fusion protein (setting [4]) worked out at 0.00073 µM.
For `O=C1CCC(N2Cc3cc(OCC4CC(F)(F)CCN4)ccc3C2=O)C(=O)N1` (stereo not drawn) [Compound I-251, 3-(5-((4,4-difluoropiperidin-2-yl)methoxy)-1-oxoisoindolin-2-yl)piperidine-2,6-dione] the same measures were 78.3%, 21.7% and 0.5 µM.
In the case of `NC(=O)NO` [Hydroxyurea], the response rate entry in test [1] was “less than 40%”.
Consider `O=C1CCC(N2Cc3cc(OC[C@H]4CCCCN4CC4CC(O)C4)ccc3C2=O)C(=O)N1` (stereo partly drawn) [I-141a, I-141b, 3-(5-(((R)-1-(((1r,3R)-3-hydroxycyclobutyl)methyl)piperidin-2-yl)methoxy)-1-oxoisoindolin-2-yl)piperidine-2,6-dione and 3-(5-(((R)-1-(((1s,3S)-3-hydroxycyclobutyl)methyl)piperidin-2-yl)methoxy)-1-oxoisoindolin-2-yl)piperidine-2,6-dione], for which the “% degradation of WIZ (100-Amax)” value on HiBit-WIZ fusion protein (100 minus Amax, at 25 uM, 293T cells) was 72.36%. The “WIZ Amax” value at HiBit-WIZ fusion protein (DMSO-normalized, curve-fitted percentage of WIZ-HiBit remaining at 25 uM, 293T cells) was determined as 27.64%. This compound also displayed a concentration at half-maximal activity (AC50) at HiBit-WIZ fusion protein (setting [4]) of 2.46 µM.
